Assays:
Assay type in all cases: in vivo
mice [1] = assay: tail-flick test after intrathecal injection in mice; set-up: unit not given here; conditions: 15 minutes after intrathecal injection of 5 µl, mean ± S.E.M.
Experimental: (§1) Antinociceptive effects in mice were established in the following test. The effect 15 minutes after intrathecal injection of a volume of 5 µl containing different doses of guanfacine was established. The vehicle used was a physiological solution of sodium chloride.

male Sprague-Dawley rats [2] = assay: tail-flick test after intrathecal injection in rats; set-up: unit not given here; conditions: rat, mean ± S.E.M.
Experimental: (§2) The antinociceptive effect of guanfacine may be established by the hot plate and tail-flick test.
(§3) Testing of tail-flick was performed using an IITC Inc. Mod. 33 Analgesia- meter@, with the light focused on the tip of the tail (d'Amour, F.E. and Smith, D.L. J. Pharmacol. Exp. Ther. 72, 74, 1941). The intensity of the beam was adjusted to give a reaction time of 3-4 sec. before intrathecal injection of the drug solutions. For the hot plate testing, a modification of the Eddy and Leimbach method (Eddy, N.B. and Leimbach, D. J. Pharmacol. Exp. Ther. 107, 385, 1952) was used. An IITC Inc. Mod. 35-D Analgesiameter® was set at a temperature of 58^±0.2°C. The criteria for a pain response was licking of either of the hindpaws.
(§4) We examined the pain responsiveness of male Sprague-Dawley rats in a weight range of 300-350 g. […] The catheter was fixed at a surgical operation. The animals were kept in the animal colony in separate cages until testing took place 1 week after operation. The drug was administered in a volume of 15 µl, and testing of hot plate and tail-flick reaction latencies took place at the intervals given in the tables. Animals given the combination of guanfacine and bupivacaine were not tested until the local anaesthetic effect of bupivacaine had disappeared, which normally took between 10 and 15 minutes.
(§5) Guanfacine or a physiologically acceptable salt thereof was administered alone or in combination with the local anaesthetic agent bupivacaine or a physiologically acceptable salt thereof. When guanfacine'was administered together with bupivacaine first an initial phase of regional anaesthesia restricted to the hind-legs and the lower derma- tomes was obtained. When this effect had disappeared the animals were still non-responsive in the hot plate and tail-flick test for up to at least 7 hours after the injection, cf Table 2 below.

mice [3] = assay: hot-plate test after intrathecal injection in mice; set-up: unit not given here; conditions: 15 minutes after intrathecal injection of 5 µl, mean ± S.E.M.
Experimental: as §1

male Sprague-Dawley rats [4] = assay: hot plate test after intrathecal injection in rats; set-up: unit not given here; conditions: rat, mean ± S.E.M.
Experimental: as §2, §3, §4, §5

mice [5] = assay: behavioural response (paw licking) after subcutaneous formaline in mice; conditions: 1% formaline s.c. 20 µl, 5 µl, 0.01% (0.5 µg) of guanfacine i.th. 15 minutes before, ± S.E.M., 10 animals
Experimental: Behavioural response in mice after subcutaneous injection of 20 µl of a physiological solution of sodium chloride or a 1 % solution of formaline on the dorsum of either hind paw.
5 µl, 0.01% ([…]) of guanfacine or the same volume of a physiological solution of sodium chloride were injected intrathetecally 15 minutes before the subcutaneous injection of formaline. The accumulated reaction, i.e. the total time of licking on the injected paw, was measured during the 5 minutes after the injection of formaline.
The results are expressed as mean accumulated response during 5 minutes in seconds ± S.E.M. Each group consisted of 10 animals.

[6] = 0.001 % guanfacine, dose 0.05 µg
[7] = 0.002 % guanfacine, dose 0.1 µg
[8] = 0.004 % guanfacine, dose 0.2 µg
[9] = 0.006 % guanfacine, dose 0.3 µg
[10] = intrathecal 75 µg guanfacine (15 µl 0.5 %), 1 min, 100x(test-latency - pre-drug latency)/pre-drug latency, n=4
[11] = intrathecal 75 µg guanfacine, 5 min
[12] = intrathecal 75 µg guanfacine, 10 min
[13] = intrathecal 75 µg guanfacine, 20 min
[14] = intrathecal 75 µg guanfacine, 30 min
[15] = intrathecal 75 µg guanfacine, 45 min
[16] = intrathecal 75 µg guanfacine, 8 hours
[17] = intrathecal 75 µg guanfacine, 22 hours

## N=C(N)NC(=O)Cc1c(Cl)cccc1Cl [guanfacine, 2,6-dichlorophenyl-acetyl-guanidine]
Mice [1]; [6]
  Antinociception tail-flick (cut-off=10 sec): 29±23
Mice [1]; [7]
  Antinociception tail-flick (cut-off=10 sec): 26±13
Mice [1]; [8]
  Antinociception tail-flick (cut-off=10 sec): 59±17
Mice [1]; [9]
  Antinociception tail-flick (cut-off=10 sec): 86±18
Male Sprague-Dawley rats [2]; [10]
  Antinociception tail-flick (cut-off=10 sec.): 27.5±17
Male Sprague-Dawley rats [2]; [11]
  Antinociception tail-flick (cut-off=10 sec.): 92.75±26
Male Sprague-Dawley rats [2]; [12]
  Antinociception tail-flick (cut-off=10 sec.): 110±33
Male Sprague-Dawley rats [2]; [13]
  Antinociception tail-flick (cut-off=10 sec.): 147±13
Male Sprague-Dawley rats [2]; [14]
  Antinociception tail-flick (cut-off=10 sec.): 153±10
Male Sprague-Dawley rats [2]; [15]
  Antinociception tail-flick (cut-off=10 sec.): 156±8
Male Sprague-Dawley rats [2]; [16]
  Antinociception tail-flick (cut-off=10 sec.): 138±20
Male Sprague-Dawley rats [2]; [17]
  Antinociception tail-flick (cut-off=10 sec.): 62±8
Mice [3]; [6]
  Antinociception hot-plate (cut-off=30 sec): 128±29
Mice [3]; [7]
  Antinociception hot-plate (cut-off=30 sec): 152±33
Mice [3]; [8]
  Antinociception hot-plate (cut-off=30 sec): 152±47
Mice [3]; [9]
  Antinociception hot-plate (cut-off=30 sec): 168±40
Male Sprague-Dawley rats [4]; [10]
  Antinociception hot plate (cut-off=30 sec.): -15±12
Male Sprague-Dawley rats [4]; [11]
  Antinociception hot plate (cut-off=30 sec.): -15±6
Male Sprague-Dawley rats [4]; [12]
  Antinociception hot plate (cut-off=30 sec.): 29±18
Male Sprague-Dawley rats [4]; [13]
  Antinociception hot plate (cut-off=30 sec.): 62±29
Male Sprague-Dawley rats [4]; [14]
  Antinociception hot plate (cut-off=30 sec.): 116±36
Male Sprague-Dawley rats [4]; [15]
  Antinociception hot plate (cut-off=30 sec.): 239±23
Male Sprague-Dawley rats [4]; [16]
  Antinociception hot plate (cut-off=30 sec.): 124±56
Male Sprague-Dawley rats [4]; [17]
  Antinociception hot plate (cut-off=30 sec.): 41±12
Male Sprague-Dawley rats [4]; intrathecal 75 µg guanfacine, 27 hours
  Antinociception hot plate (cut-off=30 sec.): 25±16
Mice [5]
  mean accumulated response (total time of licking on the injected paw) during 5 minutes: 9 ± 2 s

From patent EP0164320A1, “Pharmaceutical preparations for spinal analgesia containing guanfacine, and method for their preparation” (priority 1984, dated 1985)
